Like-named read-outs stand apart in the source and are kept apart here.

Holding throughout (type): in vivo
For one series, the system named is corn rootworm. Description: Mite/insect screen, CRW. As to conditions: percent mortality; for mortality at 12 ppm / mortality at 24 ppm: read-out: CRW RESULTS %. Put shortly: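 Stock in acetone:alcohol 1:1 + TOXIMUL R 23 g/L + TOXIMUL S 13 g/L; diluted with water to indicated concentrations; mortality (%) after standard exposure.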
Series [1] relates to Pseudoperonospora cubensis (downy mildew). Description: Test 1 greenhouse foliar spray screen, downy mildew on squash. As to conditions: for DOWN MDEW: disease control rating, foliar spray on squash, 400 ppm (+++ at 100 ppm); for pest or weed control at 400 ppm: Pseudoperonospora cubensis, foliar, Test 1, foliar spray on squash, disease control rating at 400 ppm / 100 ppm, read-out: DOWN MDEW.

The subject of series [2] is Puccinia recondita tritici (leaf rust). Description: Test 1 greenhouse foliar spray screen, leaf rust on wheat. As to conditions: for LEAF RUST: disease control rating, foliar spray on wheat, 400 ppm (+++ at 100 ppm); for pest or weed control at 400 ppm: Puccinia recondita, foliar, Test 1, foliar spray on wheat, disease control rating at 400 ppm / 100 ppm.
The next series relates to plant pathogens. Kind of series: Fungicidal efficacy against a broad spectrum of plant pathogens (summary of screen). As to conditions: summary statement in the description.
Series [3] relates to Twospotted spider mites (Tetranychus urticae Koch). Description: Mite/insect screen, SM. To be noted: for mortality at 200 ppm / mortality at 400 ppm: Tetranychus urticae, read-out: SM RESULTS %; for mortality at 200 ppm / mortality at 400 ppm / SM RESULTS %: percent mortality; for activity as miticides: summary statement in the description. An outline of the steps:
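Read-out: percent mortality after standard exposure periods. Test solutions were water dilutions of compound dissolved in acetone/alcohol (50:50) with emulsifier blends; leaves were sprayed to runoff on both surfaces and air-dried for one hour before exposure.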

Series [4] relates to melon aphids (Aphis gossypii Glover). Description: Mite/insect screen, MA. As to conditions: percent mortality; for mortality at 200 ppm / mortality at 400 ppm: Aphis gossypii, read-out: MA RESULTS %. An outline of the steps: (§1)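 First, each compound was dissolved in an emulsifier-containing acetone/alcohol mixture and diluted with water. Next, leaves were sprayed until runoff and left to dry for an hour. For southern armyworm, two excised uninfested leaves went into a Petri dish with larvae; percent mortality followed standard exposure periods.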

Series [5] concerns Botrytis cinerea (gray mold). Kind of series: Test 1 greenhouse foliar spray screen, gray mold on grape berries. As to conditions: for GRAY MOLD: disease control rating, spray on grape berries, 400 ppm (+++ at 100 ppm); for pest or weed control at 400 ppm: Botrytis cinerea, foliar, Test 1, spray on grape berries, disease control rating at 400 ppm / 100 ppm.
In series [6] the test system is Pyricularia oryzae (rice blast). Description: whole plant or invertebrate. To be noted: for RICE BLAST: disease control rating, foliar spray on rice, 400 ppm (+++ at 100 ppm); for pest or weed control at 400 ppm: Pyricularia oryzae, foliar, read-out: RICE BLAST, Test 1, foliar spray on rice, disease control rating at 400 ppm / 100 ppm.
The subject of series [7] is Erysiphe graminis tritici (powdery mildew). Kind of series: Test 1 greenhouse foliar spray screen, powdery mildew on wheat. As to conditions: for POWD MDEW: disease control rating, foliar spray on wheat, 400 ppm (+++ at 100 ppm); for pest or weed control at 400 ppm: Blumeria graminis, foliar, Test 1, foliar spray on wheat, disease control rating at 400 ppm / 100 ppm, read-out: POWD MDEW.

Series [8] concerns southern armyworm (Spodopetra eridania Cramer). Kind of series: Mite/insect screen, SAW. As to conditions: percent mortality; for mortality at 200 ppm / mortality at 400 ppm: Spodoptera eridania, read-out: SAW RESULTS %. An outline of the steps:
as §1

For series [9], the system named is Venturia inaequalis (apple scab). Description: Test 1 greenhouse foliar spray screen, apple scab on apple seedling. As to conditions: for pest or weed control at 400 ppm: Venturia inaequalis, Test 1, foliar spray on apple seedling, disease control rating at 400 ppm / 100 ppm, read-out: APPL SCAB.
Series [10] has as its system Septoria tritici (leaf blotch). Kind of series: Test 1 greenhouse foliar spray screen, leaf blotch on wheat. As to conditions: for pest or weed control at 400 ppm: Zymoseptoria tritici, Test 1, foliar spray on wheat, disease control rating at 400 ppm / 100 ppm, read-out: LEAF BLOT.
Series [11] has as its system Cercospora beticola (leaf spot). Kind of series: Test 1 greenhouse foliar spray screen, leaf spot on sugar beet. As to conditions: for pest or weed control at 400 ppm: Cercospora beticola, Test 1, foliar spray on sugar beet, disease control rating at 400 ppm / 100 ppm.
Setting [12] is: foliar, rate 200 ppm, foliar spray on squash.
Where [13] appears, read: foliar, rate 400 ppm, foliar spray on squash.

In the case of `Fc1cccc2c(NCCc3cccc(Oc4ccccc4)c3)ccnc12` [Example 39, 8-fluoro-N-[2-(3-phenoxyphenyl)ethyl]-4-quinolinamine], in the series with corn rootworm (CRW RATE 12.00 PPM), the mortality at 12 ppm came out at 0%. In addition, the mortality at 24 ppm in the series with corn rootworm (CRW RATE 24.00 PPM) stood at 0%. The “DOWN MDEW” value in series [1] is recorded as “+++ (90-100% control at 100 ppm)”. For the same compound, in series [2], the “LEAF RUST” value was “+++ (90-100% control at 100 ppm)”. In addition, the “activity against a broad spectrum of plant pathogens” value in the series with plant pathogens is “particularly excellent activity”. In addition, the mortality at 200 ppm came to 0% in [3] (SAW, SM & MA RATE 200 PPM); 0% in series [4] (SAW, SM & MA RATE 200 PPM); 0% in series [8] (SAW, SM & MA RATE 200 PPM). Moreover, the mortality at 400 ppm is 0% in series [3] (SAW, SM & MA RATE 400 PPM); 0% in series [4] (SAW, SM & MA RATE 400 PPM); 0% in [8] (SAW, SM & MA RATE 400 PPM). Besides, the “GRAY MOLD” value in series [5] is recorded as “- (0-19% control at 400 ppm)”. For the same compound, the “RICE BLAST” value in series [6] is given as “+++ (90-100% control at 100 ppm)”. In series [7], the “POWD MDEW” value is “+++ (90-100% control at 100 ppm)”.

As for `c1ccc(CCCc2ccnc3ccccc23)cc1` [Example 252, 4-(3-phenylpropyl)quinoline], in the series on corn rootworm (CRW rate 12.00 ppm), the mortality at 12 ppm came out at 0%. In the series with corn rootworm (CRW rate 24.00 ppm), the mortality at 24 ppm was 0%. Further, the pest or weed control at 400 ppm in series [9] fell in the range of 20 to 89%; in series [1], 90 to 100%; in series [10], 20 to 89%; in series [2] it was 90 to 100%; in [11] it was 0 to 19%; in series [5], 0 to 19%. Also, the pest or weed control at 400 ppm in series [6] and in series [7] was 90 to 100% throughout. Besides, the figures for the mortality at 200 ppm in series [3] (setting [12]), in series [4] (setting [12]) and in [8] (setting [12]) were 90%, 100% and 0%, respectively. Moreover, the results for the mortality at 400 ppm in series [3] (setting [13]), in series [4] (setting [13]) and in [8] (setting [13]) were 90%, 100% and 0%, respectively.

In the case of `Fc1cccc2c(CCCc3ccccc3)ccnc12` [Example 253, 8-fluoro-4-(3-phenylpropyl)quinoline], in the series with corn rootworm (CRW rate 12.00 ppm), the mortality at 12 ppm was 0%. Moreover, in the series on corn rootworm (CRW rate 24.00 ppm), the mortality at 24 ppm amounted to 0%. Further, the pest or weed control at 400 ppm in series [9] lay within 90 to 100%; in series [1], 90 to 100%; in [10] it was 20 to 89%; in series [2] it was 90 to 100%; in series [11], 20 to 89%; in [5], 0 to 19%. Moreover, the pest or weed control at 400 ppm in [6] and in series [7] was 90 to 100% each time. The values for the mortality at 200 ppm in [3] (setting [12]), in series [4] (setting [12]) and in series [8] (setting [12]) were 100%, 90% and 0%, respectively. Besides, the mortality at 400 ppm in series [3] (setting [13]) is 100%; in [4] (setting [13]) it was 100%; in series [8] (setting [13]), 0%. Moreover, the activity as miticides result in [3] is listed as “particularly excellent activity”.

For the compound `Cc1ccc(CCCc2ccnc3c(F)cccc23)cc1` [Example 258, 8-fluoro-4-[3-(4-methylphenyl)propyl]quinoline], in the series on corn rootworm (CRW rate 24.00 ppm), the mortality at 24 ppm turned out to be 0%. Moreover, the pest or weed control at 400 ppm in series [9] was in the range of 0 to 19%; in series [1], 90 to 100%; in series [10] it was 20 to 89%; in [2], 90 to 100%; in series [11], 20 to 89%; in series [5], 0 to 19%. Besides, the pest or weed control at 400 ppm in series [6] and in series [7] was 90 to 100% throughout. Besides, the figures for the mortality at 400 ppm in [3] (setting [13]), in series [4] (setting [13]) and in series [8] (setting [13]) were 90%, 100% and 0%, respectively. Besides, the activity as miticides entry in [3] was “particularly excellent activity”.

On to `Fc1cccc2c(CCCc3cccc(C(F)(F)F)c3)ccnc12` [Example 259, 8-fluoro-4-[3-[3-(trifluoromethyl)phenyl]propyl]quinoline], for which the mortality at 12 ppm in the series on corn rootworm (CRW rate 12.00 ppm) turned out to be 0%. Also, in the series with corn rootworm (CRW rate 24.00 ppm), the mortality at 24 ppm was determined as 0%. In addition, the pest or weed control at 400 ppm in series [9] fell in the range of 90 to 100%; in series [1], 90 to 100%; in series [10], 90 to 100%; in series [2], 90 to 100%; in series [11], 0 to 19%; in [5], 20 to 89%. The pest or weed control at 400 ppm in series [6] was in the range of 90 to 100%; in series [7], 20 to 89%. Further, the figures for the mortality at 200 ppm in series [3] (setting [12]), in series [4] (setting [12]) and in series [8] (setting [12]) were 100%, 90% and 0%, respectively. In addition, the figures for the mortality at 400 ppm in series [3] (setting [13]), in series [4] (setting [13]) and in series [8] (setting [13]) were 80%, 80% and 0%, respectively. In addition, the activity as miticides entry in series [3] is “particularly excellent activity”.

Consider `Fc1cccc2c(CCCc3ccc(Cl)cc3)ccnc12` [Example 261, 4-[3-(4-chlorophenyl)propyl]-8-fluoroquinoline], for which the mortality at 12 ppm in the series on corn rootworm (CRW rate 12.00 ppm) came to 0%. In addition, in the series with corn rootworm (CRW rate 24.00 ppm), the mortality at 24 ppm is 100%. The pest or weed control at 400 ppm is 20 to 89% in [9]; 20 to 89% in series [1]; 20 to 89% in [10]; 90 to 100% in [2]; 0 to 19% in series [11]; 0 to 19% in [5]. Also, the pest or weed control at 400 ppm in series [6] and in [7] was 20 to 89% throughout. Also, the mortality at 200 ppm in series [3] (setting [12]) is 90%; in series [4] (setting [12]), 100%; in [8] (setting [12]), 100%. Moreover, the values for the mortality at 400 ppm in [3] (setting [13]), in series [4] (setting [13]) and in [8] (setting [13]) were 50%, 100% and 80%, respectively.

Take “N-[2-(2,3,4,5,6-tetramethylphenyl)ethyl]-8-fluoro-4-quinolinamine [Example 112]”: the “CRW RESULTS %” value in the series with corn rootworm (CRW RATE 12.00 PPM) and with corn rootworm (CRW RATE 24.00 PPM) was 0% each time. The “APPL SCAB” value in [9] (disease control rating, foliar spray on apple seedling, 400 ppm (+++ at 100 ppm)) is listed as “- (0-19% control at 400 ppm)”. Moreover, in [1], the “DOWN MDEW” value is given as “+++ (90-100% control at 100 ppm)”. The “LEAF BLOT” value in [10] (disease control rating, foliar spray on wheat, 400 ppm (+++ at 100 ppm)) was “- (0-19% control at 400 ppm)”. In addition, the “LEAF RUST” value in series [2] is recorded as “+ (20-89% control at 400 ppm)”. In addition, the “LEAF SPOT” value in series [11] (disease control rating, foliar spray on sugar beet, 400 ppm (+++ at 100 ppm)) is given as “- (0-19% control at 400 ppm)”. The “SM RESULTS %” value in series [3] (SAW, SM & MA RATE 200 PPM) came to 0%; in series [3] (SAW, SM & MA RATE 400 PPM), 0%. Further, the “MA RESULTS %” value in series [4] (SAW, SM & MA RATE 200 PPM) is 0%; in series [4] (SAW, SM & MA RATE 400 PPM), 0%. In addition, the “GRAY MOLD” value in [5] was “- (0-19% control at 400 ppm)”. The “RICE BLAST” value in series [6] is “- (0-19% control at 400 ppm)”. Also, the “POWD MDEW” value in series [7] is listed as “- (0-19% control at 400 ppm)”. Also, the “SAW RESULTS %” value in series [8] (SAW, SM & MA RATE 200 PPM) stood at 0%; in series [8] (SAW, SM & MA RATE 400 PPM), 0%.

Source of the values: patent EP0326331B1, “Substituted quinolines and cinnolines” (Dow AgroSciences LLC, priority 1988, dated 1989).
